# From patent US4025533A, “5-Bromo-5-nitro-2-alkylsubstituted-1,3-dioxane” (Eli Lilly and Company, priority 1976, dated 1977)
# Columns and labels:
# Aspergillus terreus = assay: In Vitro Antifungal Activity, agar plates (Table III); assay type: cell-based; details: 72 h, three days at 25° C., pH 5.7, read-out: Minimum Inhibitory Concentration
# Experimental: (§1) Compounds A, B, and C were tested further to determine antifungal activity. The compounds were added to melted and cooled (50° C.) agar to obtain concentrations of 100, 50, 25, 12.5, 6.25 and 0.0 mcg per ml of agar. After the agar solidified, sterile cotton swabs were dipped in stock suspensions of the organisms (10^6 organisms per ml of physiological saline) and then streaked across the agar. After three days' incubation at 25° C., concentrations which prevented growth were recorded as the minimal inhibitory concentration. The composition of the medium used in this study was as follows:
# (§2) Calcium carbonate -- 0.5 g
# (§3) V-8 juice filtrate -- 200.0 ml
# (§4) Distilled water q.s. -- 1000 ml
# (§5) The pH was adjusted to 5.7.
# Penicillium notatum = assay: as above; assay type: cell-based; details: Penicillium chrysogenum, 72 h, three days at 25° C., pH 5.7, read-out: Minimum Inhibitory Concentration
# Experimental: as §1, §2, §3, §4, §5
# [1] = test system: Fusarium oxysporum cubense; assay: as above; assay type: cell-based; details: 72 h, three days at 25° C., pH 5.7, read-out: Minimum Inhibitory Concentration
# Experimental: as §1, §2, §3, §4, §5
# [2] = test system: Saccharomyces pastorianus; assay: as above; assay type: cell-based; details: 72 h, three days at 25° C., pH 5.7, read-out: Minimum Inhibitory Concentration
# Experimental: as §1, §2, §3, §4, §5
# Chaetomium globosum = assay: as above; assay type: cell-based; details: 72 h, three days at 25° C., pH 5.7, read-out: Minimum Inhibitory Concentration
# Experimental: as §1, §2, §3, §4, §5
# Botrytis cinerea = assay: as above; assay type: cell-based; details: 72 h, three days at 25° C., pH 5.7, read-out: Minimum Inhibitory Concentration
# Experimental: as §1, §2, §3, §4, §5
# Aspergillus fumigatus = assay: as above; assay type: cell-based; details: 72 h, three days at 25° C., pH 5.7, read-out: Minimum Inhibitory Concentration
# Experimental: as §1, §2, §3, §4, §5
# Rhodotorula glutinis = assay: as above; assay type: cell-based; details: 72 h, three days at 25° C., pH 5.7, read-out: Minimum Inhibitory Concentration
# Experimental: as §1, §2, §3, §4, §5
# Colletotrichum phomoides = assay: as above; assay type: cell-based; details: 72 h, three days at 25° C., pH 5.7, read-out: Minimum Inhibitory Concentration
# Experimental: as §1, §2, §3, §4, §5
# Microsporum gypseum = assay: as above; assay type: cell-based; details: Nannizzia gypsea, 72 h, three days at 25° C., pH 5.7, read-out: Minimum Inhibitory Concentration
# Experimental: as §1, §2, §3, §4, §5
# Propionibacterium acnes = assay: conventional tube dilution test, anaerobic; assay type: cell-based; details: Cutibacterium acnes, medium pH 6.9, read-out: minimum inhibitory concentration
# Experimental: For example, 5-bromo-2-methyl-5-nitro-1,3-dioxane (Compound C) was tested against Propionibacterium acnes (formerly called Corynebacterium acnes) in a conventional tube dilution test. A simultaneous test was run utilizing 2-bromo-2-nitropropane,1,3-diol (Compound A) and 5-bromo-5-nitro-1,3-dioxane (Compound B) as the antimicrobials.
# The test against Propionibacterium acnes were run anaerobically in the following medium:
# as §4
# The pH of the medium was 6.9
# Streptococcus faecalis [3] = assay: agar plate system (Table II); assay type: cell-based; details: Enterococcus faecalis, antibiotic medium 1, 72 hours at 30° C., read-out: Minimum Inhibitory Concentration
# Experimental: (§6) The antimicrobial activities of Compounds A, B, C, D, E and F were also determined in an agar plate system. The compounds were added to melted and cooled (50° C.) agar in twofold concentration increments from 50 mcg per ml of agar to 1.56 mcg per ml of agar. Antibiotic medium 1 [CFR 436.102(1)] was used for testing of Pseudomonas aeruginosa, Staphylococcus aureus, Escherichia coli, and Streptococcus faecalis, but antibiotic medium 22 [CFR 436.102(22)] was used for testing of Candida albicans and Aspergillus niger. Organism suspensions containing 10^6 organisms per ml were used as stock suspensions. Sterile cotton swabs were dipped in the suspensions and then streaked across the solidified agar. The figures shown in Table II were the lowest concentrations at which no growth occurred after 72 hours at 30° C. These values were interpreted as the minimum inhibitory concentration (MIC).
# Pseudomonas aeruginosa [4] = assay: agar plate system (Table II); assay type: cell-based; details: antibiotic medium 1, 72 hours at 30° C., read-out: Minimum Inhibitory Concentration
# Experimental: as §6
# Escherichia coli [5] = assay: agar plate system (Table II); assay type: cell-based; details: antibiotic medium 1, 72 hours at 30° C., read-out: Minimum Inhibitory Concentration
# Experimental: as §6
# Aspergillus niger [6] = assay: agar plate system (Table II); assay type: cell-based; details: antibiotic medium 22, 72 hours at 30° C., read-out: Minimum Inhibitory Concentration
# Experimental: as §6
# Candida albicans [7] = assay: agar plate system (Table II); assay type: cell-based; details: antibiotic medium 22, 72 hours at 30° C., read-out: Minimum Inhibitory Concentration
# Experimental: as §6
# Staphylococcus aureus [8] = assay: agar plate system (Table II); assay type: cell-based; details: antibiotic medium 1, 72 hours at 30° C., read-out: Minimum Inhibitory Concentration
# Experimental: as §6
# Streptococcus faecalis [9] = assay: conventional tube dilution test (Table I); assay type: cell-based; details: Enterococcus faecalis, 48 h, antibiotic Number 3 medium, two days at 37° C., read-out: Minimum Inhibitory Concentration
# Experimental: (§7) The in vitro antimicrobial activities of Compounds A, B and C, 5-bromo-2-ethyl-5-nitro-1,3-dioxane (Compound D), 5-bromo-5-nitro-2-n-propyl-1,3-dioxane (Compound E), and 5-bromo-2-isopropyl-5-nitro-1,3-dioxane (Compound F) were determined concurrently against Pseudomonas aeruginosa, Staphylococcus aureus, Escherichia coli, and Streptococcus faecalis in a conventional tube dilution test. The medium used was antibiotic Number 3 [CFR 436.102(3)] and the concentration of organisms was 10^4 organisms per ml of medium, with each tube being inoculated with 0.1 ml of inoculum. The figures shown in Table I are the lowest concentrations in mcg of active compound/ml of medium where no growth occurred in the medium after two days' incubation at 37° C.
# Pseudomonas aeruginosa [10] = assay: conventional tube dilution test (Table I); assay type: cell-based; details: 48 h, antibiotic Number 3 medium, two days at 37° C., read-out: Minimum Inhibitory Concentration
# Experimental: as §7
# Escherichia coli [11] = assay: conventional tube dilution test (Table I); assay type: cell-based; details: 48 h, antibiotic Number 3 medium, two days at 37° C., read-out: Minimum Inhibitory Concentration
# Experimental: as §7
# Staphylococcus aureus [12] = assay: conventional tube dilution test (Table I); assay type: cell-based; details: 48 h, antibiotic Number 3 medium, two days at 37° C., read-out: Minimum Inhibitory Concentration
# Experimental: as §7
# [13] = prior art; cited from earlier work
# human skin [14] = details: in vivo
# Source text: Two-hundred subjects were employed in each investigation. The repeated insult technique was used in the patch test. A different group of subjects were utilized for each evaluation.
# The technique used for the patch test called for a series of 9 induction patches of each test material to be placed on each of the subjects. The series was followed two weeks later by a single "challenge" patch of each test material to detect skin sensitization.
# The series of nine induction patches was applied on Monday, Wednesday and Thursday and allowed to contact the skin for 24 hours, after which time they were removed and the skin sites graded for irritation. Thursday's patches were placed immediately after removal and grading of Wednesday's applications. After the ninth induction patches had been placed, a non-patching period of 2 weeks elapsed before the challenge patches were applied to detect sensitization reactions. For this 24-hour patch, a new skin site was used. This site was invariably chosen adjacent to an induction site; i.e., one where repeated applications had been made during the series of nine induction patches. The challenge applications were graded at 24 and 72 hours after application.
# The skin applications for each material were made using oval-shaped adhesive patches (1" × 11/4") with circular gauze centers. The gauze centers were coated with approximately 0.03 ml. of the respective test material just prior to application.
# The scoring criteria used for skin irritation reactions and in evaluating the sensitization evidenced on the challenge application follows:
# Four separate formulations of each compound were tested along with two formulations of parabens.
# A reading of 5 or more on the 8-point scale was deemed to be indicative of the development of skin sensitization to the test compound.
# human skin [15] = details: prior art; cited from earlier work
# Streptococcus faecalis [16] = assay: in vitro agar plate determination (Table VII); assay type: cell-based; details: Enterococcus faecalis; agar plates at 10, 25 and 50 mcg. per ml., 24 hours; read-out: Minimum Inhibitory Concentration
# Experimental: (§8) The antimicrobial activities of […] (Compound G) were determined concurrently with 5-bromo-2-methyl-5-nitro-1,3-dioxane (Compound C) and 5-bromo-5-nitro-1,3-dioxane (Compound B) against the same six organisms shown in Table II. […] The tests were in vitro determinations utilizing agar plates containing the active compound at 10, 25 and 50 mcg. per ml. of agar. The organisms, at concentrations of 10^6 organisms per milliliter, were streaked on the solidified agar. The plates were incubated for 24 hours and the presence or absence of growth noted. The minimum inhibitory concentration (MIC) was determined as the lowest active compound concentration in the agar where no growth occurred.
# Pseudomonas aeruginosa [17] = assay: in vitro agar plate determination (Table VII); assay type: cell-based; details: agar plates at 10, 25 and 50 mcg. per ml., 24 hours, read-out: Minimum Inhibitory Concentration
# Experimental: as §8
# Escherichia coli [18] = assay: in vitro agar plate determination (Table VII); assay type: cell-based; details: agar plates at 10, 25 and 50 mcg. per ml., 24 hours, read-out: Minimum Inhibitory Concentration
# Experimental: as §8
# Aspergillus niger [19] = assay: in vitro agar plate determination (Table VII); assay type: cell-based; details: agar plates at 10, 25 and 50 mcg. per ml., 24 hours, read-out: Minimum Inhibitory Concentration
# Experimental: as §8
# Candida albicans [20] = assay: in vitro agar plate determination (Table VII); assay type: cell-based; details: agar plates at 10, 25 and 50 mcg. per ml., 24 hours, read-out: Minimum Inhibitory Concentration
# Experimental: as §8
# Staphylococcus aureus [21] = assay: in vitro agar plate determination (Table VII); assay type: cell-based; details: agar plates at 10, 25 and 50 mcg. per ml., 24 hours, read-out: Minimum Inhibitory Concentration
# Experimental: as §8
# human skin [22] = assay: Human Repeated Insult Patch Test, induction series (irritation); details: in vivo
# Source text: The following protocol was followed in testing each compound.
# Two-hundred subjects were employed in each investigation.
# [23] = chemical stability towards pH / alkali; assay type: physicochemical; details: pH 5-9
Compound,MIC (Aspergillus terreus) [µg/mL],MIC (Penicillium notatum) [µg/mL],MIC [1] [µg/mL],MIC [2] [µg/mL],MIC (Chaetomium globosum) [µg/mL],MIC (Botrytis cinerea) [µg/mL],MIC (Aspergillus fumigatus) [µg/mL],MIC (Rhodotorula glutinis) [µg/mL],MIC (Colletotrichum phomoides) [µg/mL],MIC (Microsporum gypseum) [µg/mL],MIC (Streptococcus faecalis [3]) [µg/mL],MIC (Pseudomonas aeruginosa [4]) [µg/mL],MIC (Escherichia coli [5]) [µg/mL],MIC (Aspergillus niger [6]) [µg/mL],MIC (Candida albicans [7]) [µg/mL],MIC (Staphylococcus aureus [8]) [µg/mL],MIC (Streptococcus faecalis [9]) [µg/mL],MIC (Pseudomonas aeruginosa [10]) [µg/mL],MIC (Escherichia coli [11]) [µg/mL],MIC (Staphylococcus aureus [12]) [µg/mL],further results
"O=[N+]([O-])C(Br)(CO)CO [Compound A, 2-bromo-2-nitropropane-1,3-diol]",25,100,25,> 100,< 6.25,25,< 6.25,100,> 100,50,12.5,6.25,6.25,> 50,> 50,12.5,25,12.5,12.5,25,MIC (Propionibacterium acnes): 6.25 µg/mL; chemical stability towards alkali [13]: chemically unstable towards alkali
"O=[N+]([O-])C1(Br)COCOC1 [Compound B, 5-bromo-5-nitro-1,3-dioxane, reference compound]",25,25,< 6.25,100,< 6.25,50,< 6.25,50,100,50,12.5,12.5,6.25,25,12.5,12.5,25,25,25,25,sensitizing effect (human skin [14]): marked sensitizing effect; subjects evaluated as being sensitive on the challenge test (human skin [14]): 11 subjects; MIC (Propionibacterium acnes): 6.25 µg/mL; chemical stability towards alkali [13]: does possess chemical stability towards alkali; irritation and sensitization in human subjects (human skin [15]): induces irritation and sensitization in a significant number of human subjects; MIC (Streptococcus faecalis [16]): < 10 µg/mL; MIC (Pseudomonas aeruginosa [17]): 25 µg/mL; MIC (Escherichia coli [18]): < 10 µg/mL; MIC (Aspergillus niger [19]): 50 µg/mL; MIC (Candida albicans [20]): 25 µg/mL; MIC (Staphylococcus aureus [21]): 25 µg/mL; irritation readings compared with the 2-methyl derivative (human skin [22]): more severe
"CCC1OCC(Br)([N+](=O)[O-])CO1 (stereo not shown) [Compound D, 5-bromo-2-ethyl-5-nitro-1,3-dioxane]",,,,,,,,,,,12.5,25,12.5,12.5,6.25,12.5,25,50,25,25,chemical stability at pH [23]: chemically stable at pH's from 5-9
"CCCC1OCC(Br)([N+](=O)[O-])CO1 (stereo not shown) [Compound E, 5-bromo-5-nitro-2-n-propyl-1,3-dioxane]",,,,,,,,,,,12.5,25,12.5,6.25,3.1,12.5,25,50,25,50,
"CC(C)C1OCC(Br)([N+](=O)[O-])CO1 (stereo not shown) [Compound F, 5-bromo-2-isopropyl-5-nitro-1,3-dioxane]",,,,,,,,,,,25,25,12.5,12.5,6.25,12.5,25,50,25,25,
"CC1(C)OCC(Br)([N+](=O)[O-])CO1 [Compound G, 5-bromo-2,2-dimethyl-5-nitro-1,3-dioxane]",,,,,,,,,,,,,,,,,,,,,MIC (Streptococcus faecalis [16]): 25 µg/mL; MIC (Pseudomonas aeruginosa [17]): 50 µg/mL; MIC (Escherichia coli [18]): 25 µg/mL; MIC (Aspergillus niger [19]): 50 µg/mL; MIC (Candida albicans [20]): 25 µg/mL; MIC (Staphylococcus aureus [21]): 25 µg/mL
